Experiments:
[1] = biological target: T1, Muscarinic acetylcholine receptor M4 (Homo sapiens, UniProt P08173); assay type: cell membranes, CHO-K1, Membrane; note: in other assays of this panel Not Active means under 50% inhibition at 10 µM
T1 sequence (P08173 whole entry): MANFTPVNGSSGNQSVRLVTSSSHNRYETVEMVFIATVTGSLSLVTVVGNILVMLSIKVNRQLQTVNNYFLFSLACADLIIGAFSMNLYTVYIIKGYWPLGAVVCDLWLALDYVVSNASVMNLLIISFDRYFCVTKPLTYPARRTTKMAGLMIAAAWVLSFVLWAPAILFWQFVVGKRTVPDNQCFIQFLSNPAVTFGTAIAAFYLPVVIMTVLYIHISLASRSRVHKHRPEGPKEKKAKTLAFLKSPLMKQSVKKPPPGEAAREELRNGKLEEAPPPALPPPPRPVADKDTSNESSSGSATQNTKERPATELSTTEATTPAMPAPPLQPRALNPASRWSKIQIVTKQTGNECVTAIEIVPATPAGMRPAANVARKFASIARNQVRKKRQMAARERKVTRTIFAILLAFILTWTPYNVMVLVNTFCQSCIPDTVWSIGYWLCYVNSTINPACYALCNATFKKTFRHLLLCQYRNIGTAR

Substance-P receptor = Substance-P receptor (Homo sapiens, UniProt P25103); assay type: cell membranes, CHO, Membrane; note: in other assays of this panel Not Active means under 50% inhibition at 10 µM
Chain of Substance-P receptor (P25103 whole entry): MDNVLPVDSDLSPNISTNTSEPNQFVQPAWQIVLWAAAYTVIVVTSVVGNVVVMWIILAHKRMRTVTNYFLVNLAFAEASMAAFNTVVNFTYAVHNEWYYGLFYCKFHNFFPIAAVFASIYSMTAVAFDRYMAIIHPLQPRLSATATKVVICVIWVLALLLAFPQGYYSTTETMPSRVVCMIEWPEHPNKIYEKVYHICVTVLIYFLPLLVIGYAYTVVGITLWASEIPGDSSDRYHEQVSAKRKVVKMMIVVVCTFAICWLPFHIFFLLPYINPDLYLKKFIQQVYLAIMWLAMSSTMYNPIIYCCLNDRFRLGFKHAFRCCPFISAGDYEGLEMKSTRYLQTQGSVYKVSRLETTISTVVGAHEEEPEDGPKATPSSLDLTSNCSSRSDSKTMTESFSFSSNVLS

[2] = biological target: Prostaglandin G/H synthase 1 (Homo sapiens, UniProt P23219); assay: biochemical; assay type: tissue-based, Platelet;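 note: inhibition of COX-1 enzyme activity, with arachidonic acid supplied as substrate; in other assays of this panel Not Active means under 50% inhibition at 10 µM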
Chain of Prostaglandin G/H synthase 1 (P23219 whole entry): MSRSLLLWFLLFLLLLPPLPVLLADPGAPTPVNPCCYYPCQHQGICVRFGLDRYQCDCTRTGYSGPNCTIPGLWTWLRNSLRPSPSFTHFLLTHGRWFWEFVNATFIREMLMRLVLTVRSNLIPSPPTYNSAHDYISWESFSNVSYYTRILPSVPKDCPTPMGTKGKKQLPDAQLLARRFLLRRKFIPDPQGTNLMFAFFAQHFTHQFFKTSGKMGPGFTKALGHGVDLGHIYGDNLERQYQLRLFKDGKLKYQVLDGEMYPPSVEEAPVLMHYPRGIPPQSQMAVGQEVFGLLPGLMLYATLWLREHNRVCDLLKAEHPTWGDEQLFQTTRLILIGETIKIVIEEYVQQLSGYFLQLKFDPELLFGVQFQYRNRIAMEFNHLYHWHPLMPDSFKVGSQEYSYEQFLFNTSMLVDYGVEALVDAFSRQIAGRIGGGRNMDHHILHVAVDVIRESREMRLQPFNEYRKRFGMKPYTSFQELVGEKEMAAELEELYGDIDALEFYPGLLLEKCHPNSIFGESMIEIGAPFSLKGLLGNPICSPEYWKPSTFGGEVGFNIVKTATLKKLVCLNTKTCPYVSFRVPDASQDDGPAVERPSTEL

[3] = biological target: T2, C-C chemokine receptor type 4 (Homo sapiens, UniProt P51679); assay type: cell membranes, Membrane; settings: chem-1; note: in other assays of this panel Not Active means under 50% inhibition at 10 µM
T2 sequence (P51679 whole entry): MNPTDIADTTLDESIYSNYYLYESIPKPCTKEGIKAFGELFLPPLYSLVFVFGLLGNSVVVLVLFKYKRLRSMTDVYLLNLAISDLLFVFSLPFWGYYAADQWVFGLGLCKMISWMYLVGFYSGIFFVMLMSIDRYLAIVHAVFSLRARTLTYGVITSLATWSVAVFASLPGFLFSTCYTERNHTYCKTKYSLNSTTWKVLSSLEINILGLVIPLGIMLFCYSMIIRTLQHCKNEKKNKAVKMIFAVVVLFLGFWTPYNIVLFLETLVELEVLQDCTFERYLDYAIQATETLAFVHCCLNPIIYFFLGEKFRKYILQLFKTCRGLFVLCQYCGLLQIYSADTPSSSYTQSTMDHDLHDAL

[4] = DRUGMATRIX: Phosphodiesterase PDE3 enzyme inhibition (substrate: [3H]cAMP + cAMP); assay type: tissue-based, Homo sapiens; settings: platelet; Not Active = under 50% inhibition at 10 µM
Interstitial collagenase = biological target: T3, Interstitial collagenase (Homo sapiens, UniProt P03956); assay: biochemical; assay type: tissue-based, Rheumatoid synovial fibroblasts
T3 sequence (P03956 whole entry): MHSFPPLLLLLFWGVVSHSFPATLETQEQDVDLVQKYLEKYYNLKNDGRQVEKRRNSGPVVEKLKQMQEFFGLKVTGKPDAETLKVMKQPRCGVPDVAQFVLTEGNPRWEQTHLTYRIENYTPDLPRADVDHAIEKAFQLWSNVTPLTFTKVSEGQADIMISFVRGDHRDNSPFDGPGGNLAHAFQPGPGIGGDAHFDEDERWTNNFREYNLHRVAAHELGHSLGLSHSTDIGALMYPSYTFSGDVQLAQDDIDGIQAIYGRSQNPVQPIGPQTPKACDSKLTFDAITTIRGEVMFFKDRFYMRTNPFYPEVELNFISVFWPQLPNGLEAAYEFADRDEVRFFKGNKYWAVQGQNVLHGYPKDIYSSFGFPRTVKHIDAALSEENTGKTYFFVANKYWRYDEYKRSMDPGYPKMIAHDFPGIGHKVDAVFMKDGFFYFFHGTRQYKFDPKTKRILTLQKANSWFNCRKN

Estrogen receptor = biological target: T4, Estrogen receptor (Homo sapiens, UniProt P03372); settings: sf9; note: in other assays of this panel Not Active means under 50% inhibition at 10 µM
T4 sequence (P03372 whole entry): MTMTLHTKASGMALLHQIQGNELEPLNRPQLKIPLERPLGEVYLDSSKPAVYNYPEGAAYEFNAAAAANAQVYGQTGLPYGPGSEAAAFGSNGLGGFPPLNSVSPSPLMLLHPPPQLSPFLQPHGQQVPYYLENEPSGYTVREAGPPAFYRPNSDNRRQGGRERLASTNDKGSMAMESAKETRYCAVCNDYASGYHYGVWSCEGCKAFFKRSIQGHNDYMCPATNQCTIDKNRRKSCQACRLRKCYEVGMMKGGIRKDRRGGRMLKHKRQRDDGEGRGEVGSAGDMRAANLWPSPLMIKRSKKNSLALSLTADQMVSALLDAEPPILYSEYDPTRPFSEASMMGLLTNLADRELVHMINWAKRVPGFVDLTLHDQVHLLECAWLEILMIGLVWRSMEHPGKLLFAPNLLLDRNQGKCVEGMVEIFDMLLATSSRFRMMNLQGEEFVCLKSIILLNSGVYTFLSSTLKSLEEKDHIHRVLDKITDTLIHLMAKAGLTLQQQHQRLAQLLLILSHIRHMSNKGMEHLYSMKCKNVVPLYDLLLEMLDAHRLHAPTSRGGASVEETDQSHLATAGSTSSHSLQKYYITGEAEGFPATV

| Compound | IC50 ([1]; cho-k1) | IC50 (Substance-P receptor; cho) | IC50 ([2]; platelet) | IC50 [3] | IC50 [4] | Ki [4] | IC50 (Interstitial collagenase) | IC50 (Estrogen receptor) | IC50 ([1]; read-out: IC50) [nM] | Ki ([1]; read-out: Ki) [nM] | IC50 ([2]; read-out: IC50) [nM] | Ki ([1]; cho-k1) | Ki (Substance-P receptor; cho) | Ki ([2]; platelet) | Ki [3] | Ki (Interstitial collagenase) | Ki (Estrogen receptor) | IC50 (Substance-P receptor; read-out: IC50) [nM] | Ki (Substance-P receptor; read-out: Ki) [nM] |
| --- | --- | --- | --- | --- | --- | --- | --- | --- | --- | --- | --- | --- | --- | --- | --- | --- | --- | --- | --- |
| O=C(Oc1ccccc1C(=O)O)c1ccccc1O [SALSALATE] | Not Active | Not Active | Not Active | Not Active | Not Active | Not Active | Not Active | Not Active | – | – | – | – | – | – | – | – | – | – | – |
| CNC1(c2ccccc2Cl)CCCCC1=O (stereo not drawn) [KETAMINE] | Not Active | Not Active | Not Active | Not Active | Not Active | Not Active | Not Active | Not Active | – | – | – | – | – | – | – | – | – | – | – |
| Fc1ccc(C(c2ccc(F)cc2)N2CCN(C/C=C/c3ccccc3)CC2)cc1 [FLUNARIZINE] | – | Not Active | Not Active | Not Active | – | – | Not Active | Not Active | 5660 | 789 | – | – | – | – | – | – | – | – | – |
| CN[C@H]1CC[C@@H](c2ccc(Cl)c(Cl)c2)c2ccccc21 [SERTRALINE] | – | Not Active | Not Active | Not Active | – | – | Not Active | Not Active | 2630 | 367 | – | – | – | – | – | – | – | – | – |
| O=C(Nc1ccc(Br)cc1)c1cc(Br)cc(Br)c1O [TRIBROMSALAN] | Not Active | Not Active | – | Not Active | Not Active | Not Active | Not Active | Not Active | – | – | 2070 | – | – | – | – | – | – | – | – |
| CC(C)NCC(O)c1ccc(O)c(O)c1 (stereo not drawn) [ISOPROTERENOL] | Not Active | Not Active | Not Active | Not Active | Not Active | Not Active | Not Active | – | – | – | – | – | – | – | – | – | – | – | – |
| Cc1cccc(C)c1OCC(C)N (stereo not drawn) [MEXILETINE] | Not Active | Not Active | Not Active | Not Active | Not Active | Not Active | Not Active | Not Active | – | – | – | – | – | – | – | – | – | – | – |
| MANGANESE CHLORIDE ANHYDROUS | Not Active | Not Active | Not Active | Not Active | Not Active | Not Active | Not Active | Not Active | – | – | – | Not Active | Not Active | Not Active | Not Active | Not Active | Not Active | – | – |
| CCN(CC)CCNC(=O)c1cc(S(C)(=O)=O)ccc1OC [TIAPRIDE] | Not Active | Not Active | Not Active | Not Active | Not Active | Not Active | Not Active | Not Active | – | – | – | – | – | – | – | – | – | – | – |
| Clc1ccc(COC(Cn2ccnc2)c2ccc(Cl)cc2Cl)cc1 (stereo not drawn) [ECONAZOLE] | – | – | Not Active | Not Active | – | – | Not Active | Not Active | 2120 | 296 | – | – | – | – | – | – | – | 11900 | 6480 |
| COc1c2occc2cc2ccc(=O)oc12 [METHOXSALEN] | Not Active | Not Active | Not Active | Not Active | Not Active | Not Active | Not Active | – | – | – | – | – | – | – | – | – | – | – | – |
| O.O.O.O.O.O.[Cl-].[Cl-].[Sr+2] [STRONTIUM CHLORIDE HEXAHYDRATE] | Not Active | Not Active | Not Active | Not Active | Not Active | Not Active | Not Active | – | – | – | – | – | – | – | – | – | – | – | – |
| CCN(CC)CCOc1ccc(/C(=C(/Cl)c2ccccc2)c2ccccc2)cc1 [ENCLOMIPHENE] | – | Not Active | – | Not Active | – | – | Not Active | – | 1650 | 230 | 346 | – | – | – | – | – | – | – | – |

— ChEMBL document CHEMBL1909046, “DrugMatrix in vitro pharmacology data”
